Test [1] concerns the target T1, recombinant AplaCSP4 (Agrilus planipennis chemosensory protein 4) (Agrilus planipennis, UniProt A0A1W4XLL0). In words: Binding of fluorescent probe 1-NPN to AplaCSP4 (titration). As to conditions: 2 µM protein in 50 mM Tris–HCl pH 7.4 titrated with 1-NPN 2-16 µM; read-out: binding affinity constant (KD) between 1-NPN and AplaCSP4. The procedure: Fluorescence competitive binding assays were conducted according to the method described by [Wang et al. (2021)]. Specifically, the binding affinities of AplaCSP4 for 43 volatile organic compounds were determined using F-380 fluorescence spectrophotometer (Tianjin, China) with a 10 nm slits and a 1 cm light path. These 43 substances are common green leaf volatiles, among which 16 volatiles originate from the ash tree. As the fluorescent probe, N-phenyl-1-naphthylamine (1-NPN) was excited at the wavelength of 337 nm, and emission spectra were recorded between 390 and 530 nm. […]

The target of test [2] is T1, recombinant AplaCSP4 (Agrilus planipennis chemosensory protein 4). In words: biochemical. The note with it: for Competitive binding capability(%) / activity at 2 µM / activity at 4 µM / activity at 6 µM / activity at 8 µM / activity at 10 µM / activity at 12 µM: three replicate columns, 100 at 0 μM; for binding to AplaCSP4 (in words): discussion of fluorescence competitive binding results. Format: binding. As for the experimental part: Specifically, the binding affinities of AplaCSP4 for 43 volatile organic compounds were determined using F-380 fluorescence spectrophotometer (Tianjin, China) with a 10 nm slits and a 1 cm light path. These 43 substances are common green leaf volatiles, among which 16 volatiles originate from the ash tree. […]

The test system of another test is Phyllotreta cruciferae. Set-up: method as in Cáceres et al., 2016; Sun et al., 2016. As to conditions: ref Cáceres et al., 2016, Sun et al.; cited from earlier work.
The next test concerns Cnaphalocrocis medinalis. Set-up: method as in Cáceres et al., 2016; Sun et al., 2016. As to conditions: ref Cáceres et al., 2016, Sun et al.; cited from earlier work.
Another test concerns Mythimna separata. Set-up: method as in Younas et al., 2022. The note with it: ref Younas et al., 2022; cited from earlier work.
The mark [3] stands for this setting: ligand concentration 2 μM, 2 µM.
[4] abbreviates: ligand concentration 4 μM, 4 µM.
[5] abbreviates: ligand concentration 6 μM, 6 µM.
[6] abbreviates: ligand concentration 8 μM, 8 µM.
Where [7] appears, read: ligand concentration 10 μM, 10 µM.
The mark [8] stands for this setting: ligand concentration 12 μM, 12 µM.
Where [9] appears, read: pH 7.4, ligand concentration 2 μM, read-out: Competitive binding capability(%).
Where [10] appears, read: pH 7.4, ligand concentration 4 μM, read-out: Competitive binding capability(%).
Where [11] appears, read: pH 7.4, ligand concentration 6 μM, read-out: Competitive binding capability(%).
Setting [12] is: pH 7.4, ligand concentration 8 μM, read-out: Competitive binding capability(%).
Setting [13] is: pH 7.4, ligand concentration 10 μM, read-out: Competitive binding capability(%).
The mark [14] stands for this setting: pH 7.4, ligand concentration 12 μM, read-out: Competitive binding capability(%).
The mark [15] stands for this setting: read-out: K D ±SE (dissociation constant).

Results on 7 compounds are retold here after PMC12369603, “Functional characterization of antennae-enriched chemosensory protein 4 in emerald ash borer, Agrilus planipennis” (PeerJ, 2025).

Each structure is given as a SMILES string. Where “and” joins values, the source holds several entries; their conditions need not be identical. Equal entries are not always repeated. Where two headings read alike, the source gives them in different places.

T1 sequence (A0A1W4XLL0 entry or part of it): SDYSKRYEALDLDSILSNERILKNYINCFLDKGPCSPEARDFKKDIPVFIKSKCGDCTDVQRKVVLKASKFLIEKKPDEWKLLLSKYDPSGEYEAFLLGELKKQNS

With `c1ccc(Nc2cccc3ccccc23)cc1` [1-NPN, N-phenyl-1-naphthylamine], in test [1], the Kd is 9.36 µM.

`CC(=O)/C=C/C1=C(C)CCCC1(C)C` [β-Ionone]: in test [2], the Kd was found to be 4.23 ± 0.07 µM. Also, the “Competitive binding capability(%)” value in test [2] (setting [3]) was 74.4951% and 75.2037%; in test [2] (setting [4]), 60.2358% and 60.8061%; in test [2] (setting [5]), 50.2199% and 51.0303%; in test [2] (setting [6]), 42.8154% and 43.7153%; in test [2] (setting [7]), 37.3498% and 38.224%; in test [2] (setting [8]), 33.5198% and 33.2165%. In addition, the activity at 2 µM in test [2] (pH 7.4, read-out: Competitive binding capability(%), ligand concentration 2 μM) was found to be 75.8%. In addition, the activity at 4 µM in test [2] (pH 7.4, read-out: Competitive binding capability(%), ligand concentration 4 μM) was found to be 61.2%. Also, the activity at 6 µM in test [2] (pH 7.4, read-out: Competitive binding capability(%), ligand concentration 6 μM) turned out to be 51.9%. Also, the activity at 8 µM in test [2] (pH 7.4, read-out: Competitive binding capability(%), ligand concentration 8 μM) came out at 45%. For the same compound, in test [2] (pH 7.4, read-out: Competitive binding capability(%), ligand concentration 10 μM), the activity at 10 µM amounted to 38.5%. Also, the activity at 12 µM in test [2] (pH 7.4, read-out: Competitive binding capability(%), ligand concentration 12 μM) worked out at 34.6%. The repellent activity result in the test with Phyllotreta cruciferae and in the test on Cnaphalocrocis medinalis was “repellent activity” each time.

Regarding `C=C(C)C1CC=C(C)CC1` (single isomer, unassigned; (+)) [(+)-Limonene], the Kd in test [2] (AplaCSP4 and 1-NPN each 2 µM, 50 mM Tris–HCl pH 7.4, KD = IC50/(1+[1-NPN]/K1-NPN), mean of three experiments, read-out: K D ±SE (dissociation constant)) came to 11.3 ± 0.69 µM. The “binding to AplaCSP4 (in words)” value in test [2] was “binding capabilities”. Further, the “Competitive binding capability(%)” value in test [2] (ligand concentration 2 μM) was 97.2535% and 97.4709% and 95.8953%; in test [2] (ligand concentration 4 μM) it was 90.8935% and 90.3604% and 88.2267%; in test [2] (ligand concentration 6 μM), 83.0381% and 84.401% and 80.748%; in test [2] (ligand concentration 8 μM) it was 77.7418% and 78.3215% and 71.3561%; in test [2] (ligand concentration 10 μM), 70.6734% and 71.72% and 63.3296%; in test [2] (ligand concentration 12 μM) it was 65.4243% and 64.4472% and 56.5332%.

Take `CCCCCC=O` [Hexanal]: the concentration for half-maximal inhibition (IC50) in test [2] is > 16 µM.

Take `C=CC(C)(O)CCC=C(C)CCC=C(C)C` (mixture of isomers) [Nerolidol]: the “binding to AplaCSP4 (in words)” value in test [2] was “particularly high binding affinity”. The “Competitive binding capability(%)” value was 51.463% and 50.752% in test [2] (setting [3]); 34.5446% and 32.1031% in test [2] (setting [4]); 25.4151% and 25.0577% in test [2] (setting [5]); 20.9595% and 20.5391% in test [2] (setting [6]); 17.6278% and 17.3179% in test [2] (setting [7]); 15.4258% and 15.6099% in test [2] (setting [8]). In addition, the activity at 2 µM in test [2] (setting [9]) is 49.2%. Further, in test [2] (setting [10]), the activity at 4 µM was 35.3%. Besides, the activity at 6 µM in test [2] (setting [11]) was found to be 25.6%. Further, in test [2] (setting [12]), the activity at 8 µM is 21.1%. Besides, the activity at 10 µM in test [2] (setting [13]) worked out at 17.9%. In addition, in test [2] (setting [14]), the activity at 12 µM came to 16.1%. Further, the Kd in test [2] (setting [15]) worked out at 1.38 ± 0.03 µM. In the test with Mythimna separata, the attractive activity result is recorded as “attractive activity”.

In the case of `C=CC(=C)CCC=C(C)C` [Myrcene], the “binding to AplaCSP4 (in words)” value in test [2] was “binding capabilities”. The “Competitive binding capability(%)” value in test [2] (setting [3]) was 93.6207% and 95.326%; in test [2] (setting [4]) it was 85.4868% and 89.2675%; in test [2] (setting [5]), 76.2875% and 80.8277%; in test [2] (setting [6]), 67.6403% and 72.2022%; in test [2] (setting [7]), 61.2276% and 66.6056%; in test [2] (setting [8]) it was 55.297% and 60.7518%. Besides, in test [2] (setting [9]), the activity at 2 µM was determined as 93.4%. Further, the activity at 4 µM in test [2] (setting [10]) is 87%. Besides, in test [2] (setting [11]), the activity at 6 µM is 75.3%. For the same compound, the activity at 8 µM in test [2] (setting [12]) is 66.9%. Moreover, the activity at 10 µM in test [2] (setting [13]) is 61.1%. Further, the activity at 12 µM in test [2] (setting [14]) was 54.9%. Moreover, the Kd in test [2] (setting [15]) stood at 9.9 ± 0.34 µM.

With `C=C(C)[C@@H]1CC=C(C)C(=O)C1` [(R)-(-)-Carvone], in test [2], the IC50 is > 16 µM.

The IC50 is the concentration at which inhibition is half-maximal.
